Where two headings read alike, the source gives them in different places.
Experiments:
[1] = general Swedish population (Ronneby, 106 Swedes) with high exposure through drinking water, 2 y follow-up from 6 months after clean water; ref Li et al. 2018; cited from earlier work
[2] = parameters: method as in Zhang et al. 2015; settings: ref Zhang et al. 2015, cited from earlier work
[3] = Population average serum elimination rate and half-life (linear mixed model, one compartment, first-order)
Protocol: Serum PFAS concentrations were log-transformed. Time was calculated as the elapsed days between supply of clean bottled water and […] blood sampling. We assumed one compartment, first-order elimination kinetics. In this kinetic model, the body is considered as one homogeneous volume in which mixing is instantaneous and from which PFAS could be absorbed, transferred, and eliminated according to the rate of elimination that is proportional to the concentration of PFAS in the body. Two methods were used to estimate serum elimination rate constant (k) and half-life for each PFAS:
Briefly, in the linear mixed model In Cij=αi+tijβ+Xiβ′+εij, Cij is the serum concentration of PFAS for individual i at sampling round j; αi is the subject-specific intercept (random intercept); tij is the time; β is the average slope; Xi is a vector of fixed covariates for individual i; β′ stands for the fixed effect coefficients; and εij is the random error term. We modified the model by excluding the subject-specific slope (random slope) due to a failure to converge after inclusion, which may be due to the limited number of study subjects. The negative value of the average slope ( −β ) is the population average k, and average half-life is calculated as ln2/k .
In the linear mixed model, we included only age and sex as covariates. We based covariate selection on factors that could conceivably confound the PFAS half-life estimation. Working task, duration of employment, number of glasses of water per day, blood donation, and pregnancy before mitigation of PFAS exposure from drinking water can influence the initial serum levels but would not be expected to influence the PFAS half-life.
A sensitivity analysis was performed using the same linear mixed model but with Cij as the serum levels after subtracting general background levels (using the median levels obtained from the nonexposed reference population). If the serum PFAS levels after subtraction were lower than the half of the background levels, they were replaced with half of the background levels.

[4] = Urine/serum ratio in paired samples; type: in vivo, human; settings: mean of four paired samplings per subject, 17 airport employees
Protocol: Urinary PFAS concentrations were specific-gravity adjusted. The ratio of urine and serum concentration for each PFAS (urine/serum ratio) at each sampling was calculated based on PFAS concentrations in paired serum and urine samples from 17 employees. Then the personal average urine/serum ratio was calculated using the mean value of repeated samplings for each employee.

[5] = PFAS levels in serum samples of airport employees (LC/MS/MS); settings: all the serum samples, although elevated in the drinking water
Description: All 26 employees at the airport were invited for a blood sampling between 11 and 14 September 2018 (i.e., within 11 to 14 d after the termination of contaminated drinking-water exposure). Information on age, home address, employment history, working tasks, and sick leave and vacation days in August and September were collected by questionnaire. In addition, data on the number of glasses of water consumed per day, local fish consumption, and history of blood donation and medication were collected. For female employees, questions about menstruation, pregnancy, and duration of breast-feeding were asked.
The PFAS analysis in serum from the first sampling was immediately performed and personal results were reported to the employees. […] These 17 employees submitted four rounds of blood and first morning urine samples in parallel, at 1-month intervals. In total, there were five rounds of serum sampling (started from September) and four rounds of urine sampling (from October). For modeling of elimination, all samples were reanalyzed in a single batch. We obtained 83 serum samples with a median count of 5 (range: 4–5) samples per employee, and 59 urine samples with median of 4 (range: 1–4) samples per employee. Only one employee provided a single urine sample. The study was approved by the Regional Ethical Review Board in Lund, Sweden. All employees provided written informed consent.
Venous whole blood samples were obtained and were centrifuged for 10 min at 1,500×g at room temperature to isolate the serum on site. The serum samples were collected in 6-mL BD Vacutainer® Plus plastic serum tubes without gel (BD). Urine samples were collected in 13-mL polypropylene screw cap tubes (Sarstedt). Serum and urine samples were frozen at −20°C after sampling and transported to Lund using cold chain logistics. Serum and urine samples were stored at −80°C and −20°C , respectively, before analysis.
The serum samples, QC samples, and chemical blanks were prepared in 96-well plates with 1.5-mL flat-bottom glass vials (Biotech solutions). Serum samples were thawed for 1–2 h and mixed on a vortex shaker for approximately 10 s two times. Once after all samples were thawed and a second time before pipetting the serum to the plate. Before pipetting, the tip was pre-wetted several times, drawing a volume into the tip and dispensing it back into the tube. Sample preparation procedures for serum samples consisted of 25μL serum mixed with 25μL water, 25μL methanol, 25μL isotopically labeled internal standards in 50% acetonitrile (see Table S1), and 100μL acetonitrile. Thereafter, samples were mixed vigorous by shaking for 30 min and centrifuged at 2,600×g for 10 min at room temperature. The supernatant ( 0.2mL ) was transferred to 96-well plates with 0.5-mL conical glass vials (MicroLiter Analytical Supplies) and again centrifuged at 3,000×g for 10 min before analysis. The QC samples and chemical blanks were prepared following the same procedure as the serum samples. The calibration standards were prepared in FBS the same way as the samples, except for the addition of diluted reference standards of all analyzed compounds in 25μL of the methanol solution.
Aliquots of 4μL of the sample were analyzed using LC/MS/MS. For the analysis, a C18 column ( 4μm , 2.1mm i.d.×50mm , Genesis Lightning) was used prior to the injector to filter the mobile phases. The analytical column was an Aquity BEH ( 1.7μm , 2.1mm i.d.×100mm Waters). The mobile phases (A and B) were A: 5 mM ammonium acetate in water:methanol (50:50); and B: methanol. The mobile phase was kept at 0% B for 2.5 min after injection. A gradient was then applied over 11 min to 90% B, where it was then kept for 1.5 min. The column was then conditioned at 0% B for 2 min.

O=S(=O)(O)C(F)(F)C(F)(F)C(F)(F)C(F)(F)C(F)(F)C(F)(F)C(F)(F)C(F)(F)F [PFOS, perfluorooctane sulfonic acid]
Average half-life [1]: 3.4 y
Urine/serum ratio ([2]; nonpregnant women): 0.013
Urine/serum ratio ([2]; pregnant women): 0.0004
Average half-life longer than that of the PFCA with same number of carbon atoms ([3]; PFHpS vs PFHpA, PFOS vs PFOA): ~1.2 y
Average serum half-life ([3]; population average, linear mixed model with original serum levels, 17 airport employees after end of drinking-water exposure): 2.9 y
Personal average urine/serum ratio, median (range) [4]: 0.00092

O=C(O)C(F)(F)C(F)(F)C(F)(F)C(F)(F)F [PFPeA, perfluoropentanoic acid]
Level in serum samples [5]: below LOD

Source: paper PMC7351026, “Serum Half-Lives for Short- and Long-Chain Perfluoroalkyl Acids after Ceasing Exposure from Drinking Water Contaminated by Firefighting Foam” (Environmental Health Perspectives, 2020)
